Where two headings read alike, the source gives them in different places.
Experiments:
[1] = molecular target: T1, purified PTP domain of SHP2 (Homo sapiens (Human), UniProt Q06124); experiment: PTPase assay with DiFMUP, SHP2; assay type: biochemical; conditions: for IC50: 1 nM enzyme, 20 μM DiFMUP, 37° C., 20 min; for fold difference: SHP2 IC50 relative to CNBCA
[2] = molecular target: T2, purified PTP domain of SHP1 (Homo sapiens (Human), UniProt P29350); experiment: PTPase assay with DiFMUP, SHP1; assay type: biochemical
T2 sequence (P29350 244-515): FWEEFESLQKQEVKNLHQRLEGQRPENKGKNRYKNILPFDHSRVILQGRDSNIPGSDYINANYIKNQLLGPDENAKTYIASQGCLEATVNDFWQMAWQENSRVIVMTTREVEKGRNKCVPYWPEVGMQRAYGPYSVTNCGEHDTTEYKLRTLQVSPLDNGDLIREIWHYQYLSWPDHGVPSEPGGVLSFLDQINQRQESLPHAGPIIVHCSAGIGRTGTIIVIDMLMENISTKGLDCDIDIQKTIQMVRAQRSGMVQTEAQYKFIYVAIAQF

[3] = molecular target: purified PTP domain of PTP1B (Homo sapiens (Human), UniProt P18031); experiment: PTPase assay with DiFMUP, PTP1B; assay type: biochemical
Sequence of purified PTP domain of PTP1B (P18031 3-277): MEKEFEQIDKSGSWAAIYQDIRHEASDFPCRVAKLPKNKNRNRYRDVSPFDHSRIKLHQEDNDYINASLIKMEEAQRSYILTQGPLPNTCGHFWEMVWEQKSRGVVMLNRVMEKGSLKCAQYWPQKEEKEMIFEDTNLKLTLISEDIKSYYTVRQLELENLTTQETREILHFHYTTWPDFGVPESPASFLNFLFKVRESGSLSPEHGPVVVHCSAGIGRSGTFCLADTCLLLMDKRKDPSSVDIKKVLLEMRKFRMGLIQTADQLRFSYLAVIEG

SHP2 = SHP2 (Homo sapiens (Human), UniProt Q06124); experiment: Enzyme kinetic studies with DiFMUP (Michaelis-Menten, Lineweaver-Burk); assay type: biochemical; conditions: for Km: 36.05 in its absence
PTP1B = PTP1B (Homo sapiens (Human), UniProt P18031); experiment: CETSA with CNBCA, nontarget PTP1B in breast cancer cell lysates; assay type: binding; conditions: 100 μM CNBCA
Sequence of PTP1B (P18031 whole entry): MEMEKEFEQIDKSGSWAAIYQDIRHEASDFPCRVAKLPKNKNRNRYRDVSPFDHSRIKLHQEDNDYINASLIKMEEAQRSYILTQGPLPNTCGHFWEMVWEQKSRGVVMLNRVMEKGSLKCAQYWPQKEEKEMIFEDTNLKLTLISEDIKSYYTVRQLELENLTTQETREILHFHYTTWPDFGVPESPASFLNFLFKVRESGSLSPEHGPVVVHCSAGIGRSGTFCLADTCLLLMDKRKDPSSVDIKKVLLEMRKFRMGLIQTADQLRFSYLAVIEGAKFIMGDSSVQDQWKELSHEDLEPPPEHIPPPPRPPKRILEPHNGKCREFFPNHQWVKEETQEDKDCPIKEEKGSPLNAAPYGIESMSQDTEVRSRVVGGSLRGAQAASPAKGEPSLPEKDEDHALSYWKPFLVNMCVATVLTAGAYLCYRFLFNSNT

FL-SHP2 = FL-SHP2 (Homo sapiens (Human), UniProt Q06124); experiment: PTPase assay on FLAG-tagged FL-SHP2 immunoprecipitated from MDA-MB468 cells; assay type: biochemical; conditions: 20 μM DiFMUP
[4] = test system: Akt and ERK1/2 activation in BT474 and MDA-MB468 cells; experiment: Immunoblotting for basal pERK1/2 and pAkt, CNBCA; assay type: cell-based; conditions: 48 h
[5] = test system: BT474 and MDA-MB468 cells; experiment: Cell growth in 2D culture, CNBCA; assay type: cell-based; conditions: 500 nM, 72 h
[6] = test system: BT474 and MDA-MB468 cells; experiment: Colony formation in soft agar, CNBCA; assay type: cell-based; conditions: 500 nM, 10 days
[7] = test system: BT474 and MDA-MB468 cells; experiment: Mammosphere formation in suspension culture, CNBCA; assay type: cell-based; conditions: 500 nM, 10 days
[8] = molecular target: T1, purified PTP domain of SHP2; conditions: previously reported value; read-out: IC50 SHP2 PTPase activity, parent compound; cited from earlier work
[9] = molecular target: T2, purified PTP domain of SHP1; conditions: previously reported; cited from earlier work

Question: With CCCCCCCCCOc1ccc(-c2ccc(CC(=O)O)cc2)cc1CCCC(=O)O [CNBBA, 4-(4′-(Carboxymethyl)-4-(nonyloxy)-[1,1′-biphenyl]-3-yl) Butanoic Acid] as the compound, how does the IC50 [1] read?
Answer: Its IC50 is 5.1 µM.

Question: And the fold difference [1]?
Answer: Its fold difference is 5.8.

Question: With CCCCCCCCCOc1ccc(-c2ccc(C(=O)O)cc2)cc1CCCC(=O)O [CNBCA, 3′-(3-Carboxypropyl)-4′-(nonyloxy)-[1,1′-biphenyl]-4-carboxylic Acid] as the compound, how does the “better SHP2 IC50 than CNBBA” value [1] read?
Answer: The value was 5.8 fold.

Question: What about the “better SHP2 IC50 than the parent compound CNBDA” value [1] of the same compound?
Answer: The value was 5.7 fold.

Question: What about the IC50 [1] of the same compound?
Answer: Its IC50 is 0.87 µM.

Question: What about the “Selectivity ratio, SHP2” value ([1]; SHP2 IC50 as reference) of the same compound?
Answer: The value was 1.0.

Question: What about the fold difference [1] of the same compound?
Answer: The fold difference was 1.0.

Question: And the IC50 ([2]; 35 μM DiFMUP)?
Answer: The IC50 was 34.6 µM.

Question: What about the “more selective for SHP2 than for SHP1” value ([2]; from IC50 values) of the same compound?
Answer: Its value is 39.77 fold.

Question: And the IC50 ([3]; 10 μM DiFMUP)?
Answer: The IC50 was 25 µM.

Question: What about the “Selectivity ratio, PTP1B” value ([3]; PTP1B IC50 over SHP2 IC50) of the same compound?
Answer: The value was 28.73.

Question: What about the mechanism of inhibition (SHP2) of the same compound?
Answer: Its mechanism of inhibition is “competitive inhibitor”.

Question: And the Km (SHP2; in the presence of 1.0 μM CNBCA)?
Answer: The Km was 125 µM.

Question: And the Km (SHP2; in the presence of 2.0 μM CNBCA)?
Answer: The Km was 291 µM.

Question: What about the “nontarget PTP1B remaining in solution, band density” value (from here on “nontarget PTP1B remaining”) (PTP1B; 49° C.) of the same compound?
Answer: Its value is “approximately 50%”.

Question: What about the “nontarget PTP1B remaining” value (PTP1B; 55° C.) of the same compound?
Answer: Its value is 25%.

Question: What about the “nontarget PTP1B remaining” value (PTP1B; 58° C.) of the same compound?
Answer: The value was “less than 10%”.

Question: And the IC50 (FL-SHP2)?
Answer: Its IC50 is 0.615 µM.

Question: What about the “basal pERK1/2 and pAkt levels” value ([4]; 0.250 to 2.0 μM) of the same compound?
Answer: The value was “downregulation of basal pERK1/2 and pAkt levels by CNBCA treatment in a concentration dependent manner”.

Question: What about the IC50 ([4]; BT474 and MDA-MB468 cells, band density, read-out: approximate IC50, SHP2 mediated Akt and ERK1/2 activation) of the same compound?
Answer: The IC50 was ~1 µM.

Question: And the “cell growth in 2D culture” value [5]?
Answer: Its value is “still half-confluent”.

Question: And the “colony formation in soft agar” value [6]?
Answer: The value was “fewer and smaller colonies”.

Question: And the mammosphere formation [7]?
Answer: The mammosphere formation was “fewer and smaller mammospheres”.

Question: For CCCCCCCCCOc1c(CCCC(=O)O)cc(-c2ccc(C(=O)O)cc2)cc1CCCC(=O)O [CNBDA], which fold difference [1] is on record?
Answer: The fold difference was 5.7.

Question: What about the IC50 [8] of the same compound?
Answer: Its IC50 is 5 µM.

Question: What about the “selective to SHP2 than to SHP1, parent compound” value [9] of the same compound?
Answer: Its value is “approximately 25 fold”.
